Measurements from ChEMBL document CHEMBL5120960, “Unveiling the Structure-Activity Relationships at the Orthosteric Binding Site of P2X Ion Channels: The Route to Selectivity” (J Med Chem, 2022).

What was measured:
Type in all cases: cell-based
[1] = target: T1, P2X purinoceptor 4 (Homo sapiens, UniProt Q99571); experiment: […] activity at human P2X4R expressing HEK293 cells assessed as reduction in intracellular Ca2+ influx pretreated with Fluo-4 for 1 hr followed by compound addition and further incubated for 30 mins in presence of ATP by multimode plate reader analysis
T1 sequence (Q99571 whole entry): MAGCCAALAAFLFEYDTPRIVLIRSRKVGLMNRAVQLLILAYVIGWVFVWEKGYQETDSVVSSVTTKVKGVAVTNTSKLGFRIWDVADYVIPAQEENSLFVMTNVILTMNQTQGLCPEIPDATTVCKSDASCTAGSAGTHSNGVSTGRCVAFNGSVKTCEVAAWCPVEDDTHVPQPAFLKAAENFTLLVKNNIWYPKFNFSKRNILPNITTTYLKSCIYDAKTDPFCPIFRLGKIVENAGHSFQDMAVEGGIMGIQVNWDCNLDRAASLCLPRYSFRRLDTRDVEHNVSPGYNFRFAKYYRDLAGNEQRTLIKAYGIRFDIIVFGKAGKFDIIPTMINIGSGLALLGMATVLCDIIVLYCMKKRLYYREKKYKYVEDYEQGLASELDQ

[2] = target: T2, P2X purinoceptor 1 (Homo sapiens, UniProt P51575); experiment: […] activity at human P2X1R expressing CHO cells assessed as reduction in intracellular Ca2+ influx pretreated with Fluo-4 for 1 hr followed by compound addition and further incubated for 30 mins in presence of ATP by multimode plate reader analysis
T2 sequence (P51575 whole entry): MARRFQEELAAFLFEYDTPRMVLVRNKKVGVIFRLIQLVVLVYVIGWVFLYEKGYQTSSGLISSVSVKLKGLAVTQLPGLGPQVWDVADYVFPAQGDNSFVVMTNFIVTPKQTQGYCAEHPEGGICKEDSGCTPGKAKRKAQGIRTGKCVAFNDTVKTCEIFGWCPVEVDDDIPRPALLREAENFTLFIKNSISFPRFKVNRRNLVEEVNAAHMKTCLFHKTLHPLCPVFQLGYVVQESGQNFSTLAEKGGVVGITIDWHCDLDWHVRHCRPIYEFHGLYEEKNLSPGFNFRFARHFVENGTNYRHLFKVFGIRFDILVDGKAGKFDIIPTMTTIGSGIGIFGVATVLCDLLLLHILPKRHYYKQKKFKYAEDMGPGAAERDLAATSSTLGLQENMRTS

[3] = target: T3, P2X purinoceptor 7 (Homo sapiens, UniProt Q99572); experiment: […] activity at human P2X7R expressed in HEK293 cells assessed as reduction in YO-PRO-1 iodide dye uptake preincubated for 30 mins followed by YO-PRO-1 iodide addition and measured after 2 hrs by fluorescence based multimode plate reader analysis
T3 sequence (Q99572 whole entry): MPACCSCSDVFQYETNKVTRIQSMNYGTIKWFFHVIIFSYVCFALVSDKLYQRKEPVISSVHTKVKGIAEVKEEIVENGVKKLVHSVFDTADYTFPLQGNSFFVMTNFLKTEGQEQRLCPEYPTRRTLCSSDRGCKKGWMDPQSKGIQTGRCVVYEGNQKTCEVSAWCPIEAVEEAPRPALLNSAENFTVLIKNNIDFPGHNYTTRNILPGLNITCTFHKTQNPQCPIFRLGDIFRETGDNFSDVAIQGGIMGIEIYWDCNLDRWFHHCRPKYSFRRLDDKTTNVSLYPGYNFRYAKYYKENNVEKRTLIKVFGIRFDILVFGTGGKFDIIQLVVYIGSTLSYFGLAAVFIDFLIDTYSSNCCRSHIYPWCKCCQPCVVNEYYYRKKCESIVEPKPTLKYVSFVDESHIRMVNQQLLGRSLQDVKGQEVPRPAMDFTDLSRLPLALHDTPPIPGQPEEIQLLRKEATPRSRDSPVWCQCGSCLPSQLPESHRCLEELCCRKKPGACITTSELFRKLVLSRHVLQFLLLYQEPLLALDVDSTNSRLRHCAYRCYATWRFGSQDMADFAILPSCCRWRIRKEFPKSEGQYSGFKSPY

[4] = target: T4, P2X purinoceptor 2 (Homo sapiens, UniProt Q9UBL9); experiment: […] activity at human P2X2R expressing CHO cells assessed as reduction in intracellular Ca2+ influx pretreated with Fluo-4 for 1 hr followed by compound addition and further incubated for 30 mins in presence of ATP by multimode plate reader analysis
T4 sequence (Q9UBL9 whole entry): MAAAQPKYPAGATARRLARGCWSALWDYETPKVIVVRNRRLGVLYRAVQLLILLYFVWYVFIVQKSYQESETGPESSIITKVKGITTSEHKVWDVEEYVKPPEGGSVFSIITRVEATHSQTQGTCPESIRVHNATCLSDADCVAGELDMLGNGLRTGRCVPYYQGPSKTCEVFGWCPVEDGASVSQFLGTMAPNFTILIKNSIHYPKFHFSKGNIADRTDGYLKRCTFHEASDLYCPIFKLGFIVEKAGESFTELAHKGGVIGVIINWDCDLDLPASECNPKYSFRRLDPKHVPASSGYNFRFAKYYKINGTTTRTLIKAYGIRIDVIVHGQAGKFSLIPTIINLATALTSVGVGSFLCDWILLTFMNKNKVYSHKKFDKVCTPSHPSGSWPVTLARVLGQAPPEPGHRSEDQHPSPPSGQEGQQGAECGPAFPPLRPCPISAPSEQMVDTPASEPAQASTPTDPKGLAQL

[5] = target: T5, P2X2/P2X3 heterotrimeric receptor (Homo sapiens, UniProt P56373+Q9UBL9); experiment: […] activity at human P2X2R/P2X3R expressing CHO cells assessed as reduction in intracellular Ca2+ influx pretreated with Fluo-4 for 1 hr followed by compound addition and further incubated for 30 mins in presence of ATP by multimode plate reader analysis
T5 sequence (Q9UBL9 whole entry): T4 sequence (Q9UBL9 whole entry)
T5 sequence (P56373 whole entry): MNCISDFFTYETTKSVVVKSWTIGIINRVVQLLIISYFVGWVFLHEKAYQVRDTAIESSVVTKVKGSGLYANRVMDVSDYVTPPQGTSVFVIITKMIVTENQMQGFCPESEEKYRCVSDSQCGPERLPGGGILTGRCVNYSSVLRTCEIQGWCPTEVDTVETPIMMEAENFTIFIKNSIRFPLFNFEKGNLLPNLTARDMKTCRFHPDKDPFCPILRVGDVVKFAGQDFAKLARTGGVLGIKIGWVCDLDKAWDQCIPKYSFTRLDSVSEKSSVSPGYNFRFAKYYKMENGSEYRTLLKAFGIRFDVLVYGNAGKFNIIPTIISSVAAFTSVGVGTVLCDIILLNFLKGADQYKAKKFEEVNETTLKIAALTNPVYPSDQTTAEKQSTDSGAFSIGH

[6] = target: T3, P2X purinoceptor 7; experiment: […] activity at human P2X7R expressing HEK293 cells assessed as reduction in intracellular Ca2+ influx pretreated with Fluo-4 for 1 hr followed by compound addition and further incubated for 30 mins in presence of ATP by multimode plate reader analysis
[7] = target: T6, P2X purinoceptor 3 (Homo sapiens, UniProt P56373); experiment: […] activity at human P2X3R expressing CHO cells assessed as reduction in intracellular Ca2+ influx pretreated with Fluo-4 for 1 hr followed by compound addition and further incubated for 30 mins in presence of ATP by multimode plate reader analysis
T6 sequence (P56373 whole entry): T5 sequence (P56373 whole entry)

| Structure (SMILES) | IC50 [1] | IC50 [2] | IC50 [3] | IC50 [4] | IC50 [5] | IC50 [6] | IC50 [7] |
| --- | --- | --- | --- | --- | --- | --- | --- |
| [N-]=[N+]=Nc1nc2c(N)ncnc2n1[C@@H]1O[C@H](COP(=O)(O)OP(=O)(O)OP(=O)(O)O)[C@@H](O)[C@H]1O | > 100 µM | > 100 µM | > 100 µM | > 100 µM | > 100 µM | > 100 µM | > 100 µM |
| O=c1[nH]c2cncnc2n1[C@@H]1O[C@H](COP(=O)(O)OP(=O)(O)OP(=O)(O)O)[C@@H](O)[C@H]1O | > 100 µM | > 100 µM | > 100 µM | > 100 µM | > 100 µM | > 100 µM | 11 µM |
| Nc1ncnc2c1ncn2[C@@H]1O[C@H](COP(=O)(O)OP(=O)(O)OP(=O)(O)O)[C@@H](O)[C@H]1N | > 100 µM | 6.46 µM | > 100 µM | > 100 µM | 0.363 µM | > 100 µM | 4.27 µM |
| O=P(O)(O)OP(=O)(O)OP(=O)(O)OC[C@H]1O[C@@H](n2cnc3c(S)ncnc32)[C@H](O)[C@@H]1O | > 100 µM | 1.51 µM | > 100 µM | > 100 µM | 0.00832 µM | > 100 µM | 1.51 µM |

Other lines, results leading:

| IC50 [1] | IC50 [2] | IC50 [3] | IC50 [4] | IC50 [5] | IC50 [6] | IC50 [7] | Structure (SMILES) |
| --- | --- | --- | --- | --- | --- | --- | --- |
| > 100 µM | > 100 µM | > 100 µM | > 100 µM | 0.692 µM | > 100 µM | 30.2 µM | CCCCNc1ncnc2c1ncn2[C@@H]1O[C@H](COP(=O)(O)OP(=O)(O)OP(=O)(O)O)[C@@H](O)[C@H]1O |
| > 100 µM | > 100 µM | > 100 µM | 0.417 µM | 0.282 µM | > 100 µM | 1 µM | O=P(O)(O)OP(=O)(O)OP(=O)(O)OC[C@H]1O[C@@H](n2cnc3c2ncn2ccnc32)[C@H](O)[C@@H]1O |
| 2.75 µM | > 100 µM | > 100 µM | 5.62 µM | 5.37 µM | > 100 µM | 10.5 µM | Nc1ncnc2c1ncn2[C@@H]1O[C@H](COP(=O)(O)OP(=O)(O)OP(=O)(O)O)[C@@H](O)[C@H]1F |
